Laboratory results published in PubChem BioAssay AID248 (DTP/NCI, 2004).
“And” between values parts separate entries of the source, which are not always exact repeats. Identical values can stand only once. Inconclusive results and toxic doses are left out.

Tested on: L1210 leukemia ip in BDF1 mice, survival T/C
Assay: NCI In Vivo Anticancer Drug Screen. Data for tumor model L1210 Leukemia (intraperitoneal) in B6D2F1 (BDF1) mice
Conditions: endpoint: mean survival time, higher = longer survival
Summary of the method: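 Mice bearing the transplanted tumor received compound or vehicle. Survival of the treated group was divided by that of the vehicle-treated control group to give the ratio.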

[1] = dose: 100.0 mg/kg/injection, schedule: Q01DX001 (ip), vehicle: carboxymethylcellulose (CMC)
[2] = dose: 200.0 mg/kg/injection, schedule: Q01DX001 (ip), vehicle: carboxymethylcellulose (CMC)
[3] = dose: 400.0 mg/kg/injection, schedule: Q01DX001 (ip), vehicle: carboxymethylcellulose (CMC)
[4] = dose: 75.0 mg/kg/injection, schedule: Q01DX001 (ip), vehicle: saline
[5] = dose: 100.0 mg/kg/injection, schedule: Q04DX003 (ip), vehicle: saline with Tween-80
[6] = dose: 200.0 mg/kg/injection, schedule: Q04DX003 (ip), vehicle: saline with Tween-80
[7] = dose: 400.0 mg/kg/injection, schedule: Q04DX003 (ip), vehicle: saline with Tween-80
[8] = dose: 100.0 mg/kg/injection, schedule: Q01DX009 (ip), vehicle: saline
[9] = dose: 200.0 mg/kg/injection, schedule: Q01DX009 (ip), vehicle: saline
[10] = dose: 100.0 mg/kg/injection, schedule: Q01DX009 (ip), vehicle: saline with Tween-80
[11] = dose: 200.0 mg/kg/injection, schedule: Q01DX009 (ip), vehicle: saline with Tween-80
[12] = dose: 100.0 mg/kg/injection, schedule: Q04DX003 (ip), vehicle: Klucel (hydroxypropylcellulose) (HPC)
[13] = dose: 200.0 mg/kg/injection, schedule: Q04DX003 (ip), vehicle: Klucel (hydroxypropylcellulose) (HPC)
[14] = dose: 400.0 mg/kg/injection, schedule: Q04DX003 (ip), vehicle: Klucel (hydroxypropylcellulose) (HPC)
[15] = dose: 100.0 mg/kg/injection, schedule: Q01DX001 (ip), vehicle: saline
[16] = dose: 200.0 mg/kg/injection, schedule: Q01DX001 (ip), vehicle: saline
[17] = dose: 400.0 mg/kg/injection, schedule: Q01DX001 (ip), vehicle: saline

What does the source list for `Cc1cc([N+](=O)[O-])cc(C)c1N`?
T/C (dose: 50.0 mg/kg/injection, schedule: Q01DX001 (ip), vehicle: carboxymethylcellulose (CMC)): 100 % of control; T/C [1]: 102 % of control; T/C [2]: 100 % of control; T/C [3]: 110 % of control

Which T/C [4] does the source give for `Nc1ccccc1-c1ccccc1` here?
Its T/C is 112 % of control.

Which T/C [5] does the source give for `CC(N)CSC(=O)c1ccccc1` (centres undefined) here?
Its T/C is 100 % of control.

And the T/C [6]?
Its T/C is 100 % of control.

And the T/C [7]?
The T/C was 94 % of control.

For `CCCCN1CCNCC1`, which T/C (dose: 50.0 mg/kg/injection, schedule: Q01DX009 (ip), vehicle: saline) is on record?
The T/C was 95 % of control.

What about the T/C [8] of the same compound?
Its T/C is 97 % of control.

What about the T/C [9] of the same compound?
The T/C was 106 % of control.

What does the source list for `O=C(CCl)NC(CO)C(=O)O` (centres undefined)?
T/C [10]: 89 % of control; T/C [5]: 103 % of control; T/C [11]: 87 % of control; T/C [6]: 94 % of control

Which results are given for `COC(=O)/C=C/c1ccc(OC)c(OC)c1`?
T/C [12]: 93 % of control; T/C [13]: 95 % of control; T/C [14]: 102 % of control

Which results are given for `COC(=O)C(Cc1ccccc1)NC(=O)C(C)NC(=O)OCc1ccccc1` (centres undefined)?
T/C (dose: 100.0 mg/kg/injection, schedule: Q04DX002 (ip), vehicle: Klucel (hydroxypropylcellulose) (HPC)): 105 % of control; T/C (dose: 130.0 mg/kg/injection, schedule: Q04DX002 (ip), vehicle: Klucel (hydroxypropylcellulose) (HPC)): 100 % of control and 86 % of control; T/C (dose: 200.0 mg/kg/injection, schedule: Q04DX002 (ip), vehicle: Klucel (hydroxypropylcellulose) (HPC)): 100 % of control; T/C (dose: 300.0 mg/kg/injection, schedule: Q04DX002 (ip), vehicle: Klucel (hydroxypropylcellulose) (HPC)): 100 % of control and 103 % of control; T/C (dose: 400.0 mg/kg/injection, schedule: Q04DX002 (ip), vehicle: Klucel (hydroxypropylcellulose) (HPC)): 108 % of control

With `COC1OC(COS(=O)(=O)c2ccc(C)cc2)C2OC(C)(C)OC12` (centres undefined) as the compound, how does the T/C (dose: 50.0 mg/kg/injection, schedule: Q01DX009 (ip), vehicle: Klucel (hydroxypropylcellulose) (HPC)) read?
Its T/C is 107 % of control.

What about the T/C (dose: 50.0 mg/kg/injection, schedule: Q04DX003 (ip), vehicle: Klucel (hydroxypropylcellulose) (HPC)) of the same compound?
The T/C was 92 % of control.

What about the T/C (dose: 100.0 mg/kg/injection, schedule: Q01DX009 (ip), vehicle: Klucel (hydroxypropylcellulose) (HPC)) of the same compound?
Its T/C is 95 % of control.

And the T/C [8]?
The T/C was 96 % of control.

And the T/C [12]?
The T/C was 92 % of control and 94 % of control.

And the T/C (dose: 200.0 mg/kg/injection, schedule: Q01DX009 (ip), vehicle: Klucel (hydroxypropylcellulose) (HPC))?
Its T/C is 104 % of control.

What about the T/C [9] of the same compound?
The T/C was 91 % of control.

And the T/C [13]?
The T/C was 92 % of control and 91 % of control.

What about the T/C (dose: 400.0 mg/kg/injection, schedule: Q01DX009 (ip), vehicle: Klucel (hydroxypropylcellulose) (HPC)) of the same compound?
Its T/C is 96 % of control.

And the T/C (dose: 400.0 mg/kg/injection, schedule: Q01DX009 (ip), vehicle: saline)?
Its T/C is 91 % of control.

What about the T/C [14] of the same compound?
Its T/C is 105 % of control and 91 % of control.

`O=C(Nc1ccccc1)N(O)c1ccccc1` was tested. Which T/C (dose: 9.0 mg/kg/injection, schedule: Q01DX015 (ip), vehicle: methylcellulose (MC)) did it give?
The T/C was 97 % of control.

And the T/C (dose: 18.0 mg/kg/injection, schedule: Q01DX015 (ip), vehicle: methylcellulose (MC))?
Its T/C is 97 % of control.

And the T/C (dose: 25.0 mg/kg/injection, schedule: Q01DX015 (ip), vehicle: methylcellulose (MC))?
The T/C was 112 % of control.

What about the T/C (dose: 37.5 mg/kg/injection, schedule: Q01DX015 (ip), vehicle: methylcellulose (MC)) of the same compound?
The T/C was 95 % of control.

And the T/C (dose: 50.0 mg/kg/injection, schedule: Q01DX015 (ip), vehicle: methylcellulose (MC))?
Its T/C is 103 % of control.

What about the T/C (dose: 100.0 mg/kg/injection, schedule: Q01DX015 (ip), vehicle: methylcellulose (MC)) of the same compound?
Its T/C is 103 % of control.

And the T/C (dose: 200.0 mg/kg/injection, schedule: Q01DX015 (ip), vehicle: methylcellulose (MC))?
The T/C was 101 % of control.

`COC(=O)c1ccccc1-c1ccccc1C(=O)O` was tested. Which T/C (dose: 44.0 mg/kg/injection, schedule: Q01DX001 (ip), vehicle: other) did it give?
Its T/C is 101 % of control.

And the T/C (dose: 66.0 mg/kg/injection, schedule: Q01DX001 (ip), vehicle: other)?
Its T/C is 106 % of control.

And the T/C (dose: 100.0 mg/kg/injection, schedule: Q01DX001 (ip), vehicle: other)?
Its T/C is 93 % of control.

What about the T/C (dose: 150.0 mg/kg/injection, schedule: Q01DX001 (ip), vehicle: other) of the same compound?
The T/C was 95 % of control.

And the T/C (dose: 200.0 mg/kg/injection, schedule: Q01DX001 (ip), vehicle: other)?
The T/C was 98 % of control.

What about the T/C (dose: 400.0 mg/kg/injection, schedule: Q01DX001 (ip), vehicle: other) of the same compound?
The T/C was 98 % of control.

With `Nc1ccccc1Nc1ccc(-c2ccc(Nc3ccccc3N)cc2)cc1` as the compound, how does the T/C [15] read?
Its T/C is 94 % of control.

And the T/C [16]?
Its T/C is 100 % of control.

And the T/C [17]?
Its T/C is 92 % of control.

`CC(C)CC(CC(C)C)NCC(C)OC(=O)C(c1ccccc1)c1ccccc1` (centres undefined) was tested. Which T/C [4] did it give?
Its T/C is 102 % of control.

What about the T/C (dose: 150.0 mg/kg/injection, schedule: Q01DX001 (ip), vehicle: saline) of the same compound?
Its T/C is 98 % of control.

And the T/C (dose: 300.0 mg/kg/injection, schedule: Q01DX001 (ip), vehicle: saline)?
Its T/C is 102 % of control.

For `CC(C)COC(C[N+](=O)[O-])C(Cl)(Cl)Cl` (centres undefined), which T/C [10] is on record?
Its T/C is 98 % of control.

What about the T/C [5] of the same compound?
Its T/C is 92 % of control.

And the T/C [11]?
The T/C was 89 % of control.

What about the T/C [6] of the same compound?
The T/C was 90 % of control.

What about the T/C [7] of the same compound?
Its T/C is 92 % of control.

Which T/C [1] does the source give for `CCCC1c2ccccc2-c2ccc(C(C)=O)cc21` (centres undefined) here?
The T/C was 97 % of control.

And the T/C [2]?
The T/C was 92 % of control.

And the T/C [3]?
The T/C was 97 % of control.

With `CC(=O)Oc1cc([N+](=O)[O-])ccc1C(=O)O` as the compound, how does the T/C [5] read?
Its T/C is 96 % of control.

And the T/C [6]?
Its T/C is 91 % of control.

And the T/C [7]?
Its T/C is 94 % of control.

Which T/C [10] does the source give for `Cc1nc2ccccc2c(=O)n1NC(=O)c1cc([N+](=O)[O-])cc([N+](=O)[O-])c1` here?
Its T/C is 90 % of control.

And the T/C [11]?
Its T/C is 97 % of control.

What about the T/C (dose: 400.0 mg/kg/injection, schedule: Q01DX009 (ip), vehicle: saline with Tween-80) of the same compound?
The T/C was 93 % of control.

Which T/C (dose: 100.0 mg/kg/injection, schedule: Q04DX003 (ip), vehicle: saline sonified) does the source give for `CC/C(=N/O)c1ccccc1` here?
Its T/C is 110 % of control.

What about the T/C (dose: 200.0 mg/kg/injection, schedule: Q04DX003 (ip), vehicle: saline sonified) of the same compound?
Its T/C is 95 % of control.

What about the T/C (dose: 400.0 mg/kg/injection, schedule: Q04DX003 (ip), vehicle: saline sonified) of the same compound?
Its T/C is 93 % of control.

With `CCOC(=O)Nc1cc2c(c(N)n1)N=C(CN(C)c1ccc(Cl)cc1)CN2` as the compound, how does the T/C (dose: 100.0 mg/kg/injection, schedule: Q01DX001 (ip), vehicle: Klucel (hydroxypropylcellulose) (HPC)) read?
Its T/C is 150 % of control and 165 % of control.

And the T/C (dose: 150.0 mg/kg/injection, schedule: Q01DX001 (ip), vehicle: Klucel (hydroxypropylcellulose) (HPC))?
The T/C was 93 % of control.

For `N#CCCn1c2ccccc2c2ccccc21`, which T/C (dose: 50.0 mg/kg/injection, schedule: Q01DX001 (ip), vehicle: saline) is on record?
The T/C was 96 % of control.

What about the T/C (dose: 50.0 mg/kg/injection, schedule: Q04DX002 (ip), vehicle: gum acacia) of the same compound?
The T/C was 91 % of control.

And the T/C [15]?
The T/C was 102 % of control.

And the T/C (dose: 100.0 mg/kg/injection, schedule: Q04DX002 (ip), vehicle: gum acacia)?
The T/C was 91 % of control.

And the T/C [16]?
The T/C was 102 % of control.

And the T/C (dose: 200.0 mg/kg/injection, schedule: Q04DX002 (ip), vehicle: gum acacia)?
The T/C was 98 % of control.

What about the T/C [17] of the same compound?
The T/C was 96 % of control.
